Numbered stars: 1 amine (or outer) side, 2 acyl side, 3 side chain; on linkers, the order of the positions; unused ones are H or OH. Square brackets hold non-standard residues; d marks the D form. Peptide text beside a SMILES is read from it. * marks the point of attachment. Phe(2-CF3) = N[C@@H](Cc1ccccc1C(F)(F)F)C(=O)O; Phe(3,5-F2) = N[C@@H](Cc1cc(F)cc(F)c1)C(=O)O; Phe(3-Me) = Cc1cccc(C[C@H](N)C(=O)O)c1; Dab(3S-OH) = NC[C@H](O)[C@H](N)C(=O)O; X4 = N=C(N)NCC/C=C(/N[*:1])C(=O)[*:2]; His(π-Me) = Cn1cncc1C[C@H](N)C(=O)O; ΔZArg = N=C(N)NCC/C=C(\N)C(=O)O; Cit = NC(=O)NCCC[C@H](N)C(=O)O; hLys = NCCCCC[C@H](N)C(=O)O; dOrn = NCCC[C@@H](N)C(=O)O; Orn = NCCC[C@H](N)C(=O)O; Dab = NCC[C@H](N)C(=O)O; NH(CH2)4NH2 = NCCCCN*
Experiments:
Assay in all cases: MIC, broth microdilution (CLSI), reference strain
Conditions in all cases: CAMHB
[1] = test system: Escherichia coli ATCC 25922
[2] = test system: Staphylococcus aureus ATCC 13709
[3] = test system: Acinetobacter baumannii ATCC 19606
[4] = test system: Pseudomonas aeruginosa ATCC 27853

Structure (SMILES)	Ec: MIC Escherichia coli ATCC 25922 [1]	Sa: MIC Staphylococcus aureus ATCC 13709 [2]	Ab: MIC Acinetobacter baumannii ATCC 19606 [3]	Pa: MIC Pseudomonas aeruginosa ATCC 27853 [4]
C[C@H](NC(=O)[C@@H](NC(=O)[C@@H](N)CCCCN)[C@@H](O)CN)C(=O)NCC(=O)N[C@H](CCCN)C(=O)N1CCC[C@H]1C(=O)N[C@@H](Cc1ccccc1C(F)(F)F)C(=O)N[C@@H](CCCCN)C(=O)N/C(=C\CCNC(=N)N)C(=O)O [24.79] (H-K[Dab(3S-OH)]AG[dOrn]P[Phe(2-CF3)]K[ΔZArg]-OH)	+ (≤32 μg/mL)	++ (≤8 μg/mL)	− (>32 μg/mL)	− (>32 μg/mL)
C[C@H](NC(=O)[C@@H](NC(=O)[C@@H](N)CCCCN)[C@@H](O)CN)C(=O)NCC(=O)N[C@H](CCCN)C(=O)N1CCC[C@H]1C(=O)N[C@@H](Cc1cnc[nH]1)C(=O)N[C@@H](CCCCN)C(=O)N/C(=C\CCNC(=N)N)C(=O)N[C@@H](CCCCN)C(=O)O [24.62] (H-K[Dab(3S-OH)]AG[dOrn]PHK[ΔZArg]K-OH)	+ (≤32 μg/mL)	++ (≤8 μg/mL)	− (>32 μg/mL)	− (>32 μg/mL)
Cc1cccc(C[C@H](NC(=O)[C@@H]2CCCN2C(=O)[C@@H](CCCN)NC(=O)CNC(=O)[C@H](CCCN)NC(=O)[C@@H](NC(=O)[C@@H](N)CCCCN)[C@@H](O)CN)C(=O)N[C@@H](CCCCN)C(=O)N/C(=C\CCNC(=N)N)C(=O)O)c1 [211.5] (H-K[Dab(3S-OH)][Orn]G[dOrn]P[Phe(3-Me)]K[ΔZArg]-OH)	++ (≤8 μg/mL)	++ (≤8 μg/mL)	− (>32 μg/mL)	− (>32 μg/mL)
C[C@@H](O)[C@H](NC(=O)[C@@H](NC(=O)[C@@H](N)CCCCN)[C@@H](O)CN)C(=O)NCC(=O)N[C@H](CCCN)C(=O)N1CCC[C@H]1C(=O)N[C@@H](Cc1cnc[nH]1)C(=O)N[C@@H](CCCCN)C(=O)N/C(=C\CCNC(=N)N)C(=O)O [25.3] (H-K[Dab(3S-OH)]TG[dOrn]PHK[ΔZArg]-OH)	+ (≤32 μg/mL)	+ (≤32 μg/mL)	− (>32 μg/mL)	− (>32 μg/mL)
C[C@H](NC(=O)[C@@H](NC(=O)[C@@H](N)CCCCN)[C@@H](O)CN)C(=O)NCC(=O)N[C@H](CCCN)C(=O)N1CCC[C@H]1C(=O)N[C@@H](CCC(N)=O)C(=O)N[C@@H](CCCCN)C(=O)N/C(=C\CCNC(=N)N)C(=O)N[C@@H](CCCCN)C(=O)NCCCCN [24.21] (H-K[Dab(3S-OH)]AG[dOrn]PQK[ΔZArg]K-{NH(CH2)4NH2})	++ (≤8 μg/mL)	++ (≤8 μg/mL)	− (>32 μg/mL)	− (>32 μg/mL)
C[C@H](NC(=O)[C@H](CCN)NC(=O)[C@@H](N)CCCCN)C(=O)NCC(=O)N[C@H](CCCN)C(=O)N1CCC[C@H]1C(=O)N[C@@H](Cc1cnc[nH]1)C(=O)N[C@@H](CCCCN)C(=O)N/C(=C/CCNC(=N)N)C(=O)N[C@@H](CCCCN)C(=O)NCCCCN [14.1] (H-K[Dab]AG[dOrn]PHK[X4]K-{NH(CH2)4NH2})	+ (≤32 μg/mL)	++ (≤8 μg/mL)	− (>32 μg/mL)	− (>32 μg/mL)
C[C@H](NC(=O)[C@@H](NC(=O)[C@@H](N)CCCCN)[C@@H](O)CN)C(=O)NCC(=O)N[C@H](CCCN)C(=O)N1CCC[C@H]1C(=O)N[C@@H](Cc1cncn1C)C(=O)N[C@@H](CCCCN)C(=O)N/C(=C\CCNC(=N)N)C(=O)O [24.91] (H-K[Dab(3S-OH)]AG[dOrn]P[His(π-Me)]K[ΔZArg]-OH)	+ (≤32 μg/mL)	+ (≤32 μg/mL)	− (>32 μg/mL)	− (>32 μg/mL)
C[C@H](NC(=O)[C@@H](NC(=O)[C@@H](N)CCCCCN)[C@@H](O)CN)C(=O)NCC(=O)N[C@H](CCCN)C(=O)N1CCC[C@H]1C(=O)N[C@@H](Cc1cnc[nH]1)C(=O)N[C@@H](CCCCN)C(=O)N/C(=C\CCNC(=N)N)C(N)=O [24.69] (H-[hLys][Dab(3S-OH)]AG[dOrn]PHK[ΔZArg]-NH2)	+ (≤32 μg/mL)	++ (≤8 μg/mL)	− (>32 μg/mL)	− (>32 μg/mL)
C[C@H](NC(=O)[C@@H](NC(=O)[C@@H](N)CCCCN)[C@@H](O)CN)C(=O)NCC(=O)N[C@H](CCCN)C(=O)N1CCC[C@H]1C(=O)N[C@@H](CCCNC(N)=O)C(=O)N[C@@H](CCCCN)C(=O)N/C(=C\CCNC(=N)N)C(=O)O [24.116] (H-K[Dab(3S-OH)]AG[dOrn]P[Cit]K[ΔZArg]-OH)	− (>32 μg/mL)	+ (≤32 μg/mL)	− (>32 μg/mL)	− (>32 μg/mL)
NCCCCNC(=O)[C@H](CCCCN)NC(=O)[C@@H](CCCN)NC(=O)[C@H](CCCCN)NC(=O)[C@H](Cc1cnc[nH]1)NC(=O)[C@@H]1CCCN1C(=O)[C@@H](CCCN)NC(=O)CNC(=O)[C@@H](NC(=O)[C@@H](NC(=O)[C@@H](N)CCCCN)[C@@H](O)CN)[C@@H](O)CN [22.22] (H-K[Dab(3S-OH)][Dab(3S-OH)]G[dOrn]PHK[dOrn]K-{NH(CH2)4NH2})	− (>32 μg/mL)	++ (≤8 μg/mL)	− (>32 μg/mL)	− (>32 μg/mL)
C[C@H](NC(=O)[C@H](CCN)NC(=O)[C@@H](N)CCCCN)C(=O)NCC(=O)N[C@H](CCCN)C(=O)N1CCC[C@H]1C(=O)N[C@@H](Cc1cnc[nH]1)C(=O)N[C@@H](CCCCN)C(=O)N/C(=C\CCNC(=N)N)C(=O)N[C@@H](CCCCN)C(=O)O [14.21] (H-K[Dab]AG[dOrn]PHK[ΔZArg]K-OH)	− (>32 μg/mL)	+ (≤32 μg/mL)	− (>32 μg/mL)	− (>32 μg/mL)
N=C(N)NCC/C=C(\NC(=O)[C@H](CCCCN)NC(=O)[C@H](Cc1c[nH]c2ccccc12)NC(=O)[C@@H]1CCCN1C(=O)[C@@H](CCCN)NC(=O)CNC(=O)[C@H](CCN)NC(=O)[C@@H](NC(=O)[C@@H](N)CCCCN)[C@@H](O)CN)C(=O)O [21.12] (H-K[Dab(3S-OH)][Dab]G[dOrn]PWK[ΔZArg]-OH)	++ (≤8 μg/mL)	++ (≤8 μg/mL)	− (>32 μg/mL)	− (>32 μg/mL)
N=C(N)NCC/C=C(\NC(=O)[C@H](CCCCN)NC(=O)[C@H](Cc1cnc[nH]1)NC(=O)[C@@H]1CCCN1C(=O)[C@@H](CCCN)NC(=O)CNC(=O)[C@H](CCN)NC(=O)[C@@H](NC(=O)[C@@H](N)CCCCN)[C@@H](O)CN)C(=O)O [21.2] (H-K[Dab(3S-OH)][Dab]G[dOrn]PHK[ΔZArg]-OH)	++ (≤8 μg/mL)	++ (≤8 μg/mL)	− (>32 μg/mL)	− (>32 μg/mL)
N=C(N)NCC/C=C(\NC(=O)[C@H](CCCCN)NC(=O)[C@H](Cc1cnc[nH]1)NC(=O)[C@@H]1CCCN1C(=O)[C@@H](CCCN)NC(=O)CNC(=O)[C@@H](NC(=O)[C@H](CCN)NC(=O)[C@@H](N)CCCCN)[C@@H](O)CN)C(=O)N[C@@H](CCCCN)C(=O)NCCCCN [12.1] (H-K[Dab][Dab(3S-OH)]G[dOrn]PHK[ΔZArg]K-{NH(CH2)4NH2})	− (>32 μg/mL)	++ (≤8 μg/mL)	− (>32 μg/mL)	− (>32 μg/mL)
C[C@H](NC(=O)[C@@H](NC(=O)[C@@H](N)CCCCN)[C@@H](O)CN)C(=O)NCC(=O)N[C@H](CCCN)C(=O)N1CCC[C@H]1C(=O)N[C@@H](Cc1cc(F)cc(F)c1)C(=O)N[C@@H](CCCCN)C(=O)N/C(=C\CCNC(=N)N)C(=O)O [24.86] (H-K[Dab(3S-OH)]AG[dOrn]P[Phe(3,5-F2)]K[ΔZArg]-OH)	+ (≤32 μg/mL)	++ (≤8 μg/mL)	− (>32 μg/mL)	− (>32 μg/mL)
C[C@H](NC(=O)[C@@H](CCCN)NC(=O)CNC(=O)[C@@H](NC(=O)[C@@H](NC(=O)[C@@H](N)CCCCN)[C@@H](O)CN)[C@@H](O)CN)C(=O)N[C@@H](Cc1cnc[nH]1)C(=O)N[C@@H](CCCCN)C(=O)N/C(=C\CCNC(=N)N)C(=O)N[C@@H](CCCCN)C(=O)NCCCCN [22.18] (H-K[Dab(3S-OH)][Dab(3S-OH)]G[dOrn]AHK[ΔZArg]K-{NH(CH2)4NH2})	+ (≤32 μg/mL)	++ (≤8 μg/mL)	− (>32 μg/mL)	− (>32 μg/mL)

Source: patent publication US10626144B2, “Peptide derivatives and uses thereof” (Nosopharm, priority 2014, dated 2020)
